Measurements: PMC5652740, “Inhibition of HIV-1 infection in humanized mice and metabolic stability of protein phosphatase-1-targeting small molecule 1E7-03” (Oncotarget, 2017)
“And” between values parts separate entries of the source, which are not always exact repeats. Equal values may be shown once. Read-outs that look alike come from different tables or passages of the source.

What was measured:
[1] = Pharmacokinetic analysis in mice after i.p. injection; type: in vivo; conditions: male, BALB/cJ, ip
Experimental: The animal facilities and protocols were approved by Howard University Institutional Animal Care and Use Committee (IACUC). All experimental procedures were in accordance with the NIH Guidelines for the Care and Use of Laboratory Animals. BALB/cJ male mice (8 weeks old, 25–30 g) were purchased from Jackson Laboratory (Bar Harbor, ME, USA) and housed under pathogen-free conditions in HEPA-filtered cages and kept on a 12 h light/dark cycle. Compounds were administered to mice via intraperitoneal (i.p.) injection with maximum achievable doses of 30 mg/kg 1E7-03 (100 μl injection of 8 mM 1E7-03 in 80% DMSO/20% saline) and 100 mg/kg DP1-07 (100 μl injection of 100 mM DP1-07 in 40% propylene glycol/10% DMSO/50% saline). Blood samples were collected at different time points (15 min, 30 min, 1 hr, 3 hr, 6 hrs and 24 hrs) for each group (n=3 mice per group). For each sample, 20 μl of plasma was mixed with 80 μl cold acetone, and centrifuged at 13,000 rpm for 5 min. The supernatant was transferred to a clean test tube and dried in a SpeedVac concentrator. The residue was re-constituted in 50 μl of acetonitrile for LC-MS analysis. Calibration curves were prepared by spiking 1E7-03, DP1, DP3 and DP1-07 into the drug-free mouse plasma and subjected to similar sample extraction procedures. The plasma concentration–time profile of each analyte was constructed and pharmacokinetic parameters were determined by non-compartmental method using Phoenix WinNonlin Version 5.3 (Pharsight Corporation, Mountain View, CA).
(§1) A 10 μl aliquots from each sample were loaded to a LC-20AD nano HPLC system (Shimadzu Corporation, Columbia, MD, USA) coupled to LTQ XL Orbitrap mass spectrometer (Thermo Fisher Scientific) with the installed Xcalibur software (version 2.0.7, Thermo Fisher Scientific). Liquid chromatography was carried out on an in-house made nano-HPLC column (Polymicro Technologies Inc., Phoenix, AZ, USA) packed with reverse phase PolySulfoethyl A, 5μM, 200 Å (PolyLC Inc., Columbia, MD, USA). Mobile phase A was 0.1% formic acid in water and mobile phase B - 0.1% formic acid in acetonitrile. The elution was performed at a flow rate of 600 nl/min over 40 min using a multisegment linear gradient of mobile phase B as follows: 0–6.02 min, 1% B; 6.02–6.11 min, 1–2% B; 6.11–20 min, 2−80% B; 20–25 min, 80% B; 25–30 min, 80–85% B; 30–31 min, […]; 31–40 min, 2% B (v/v). The Orbitrap was operated under data-dependent acquisition mode. The spray voltage, capillary temperature and capillary voltage were set to 2.0 kV, 200 °C, and 39.5 V, respectively. Full-scan mass spectra were acquired in Orbitrap over 150−1500 m/z with a resolution of 30 000, followed by MS^n scans by CID activation mode. The precursor ions were fragmented with collision energy of 18 with activation Q of 0.25 and an activation time of 30 ms. Dynamic exclusion was enabled with a repeat count of 2, a repeat duration of 15 s, exclusion duration of 20 s, an exclusion list size of 50. The mass spectrometer was also operated in NL scan of m/z 18.01, 45.05, 71.03 and 72.02 and MRM mode. The MRM transitions were controlled by a segmented program in order to short the scan cycle and increase sensitivity.

[2] = 1E7-03 degradation in mouse plasma; type: in vitro ADME; conditions: for % of 1E7-03 degraded: mouse plasma, 10 μM
Experimental: as §1
1E7-03 dissolved in DMSO (10 mM stock solution) was mixed with mouse plasma (Sigma-Aldrich), guinea pig plasma (Sigma-Aldrich), ferret plasma (BioreclamationIVT), monkey plasma (courtesy of Binhua Ling, PhD, Tulane University) and human plasma (collected from heathy volunteer by the Center for Sickle Cell Disease at Howard University) to the final concentration of 10 μM and incubated at 37°C. Aliquots were collected at different time points for up to 24 hrs. The resulting sample (60 μl) was mixed with 240 μl of cold acetone, vortexed for 2 min, kept at –20°C for 30 min, and then the precipitated protein was removed by centrifugation at 13,000 × g for 5 min. The supernatant was transferred to a clean test tube and evaporated to dryness using a SpeedVac concentrator. The residue reconstituted in 60 μl of acetonitrile for LC/FT-MS analysis. All experiments were run parallel in triplicates.

[3] = Stability in mouse liver microsomes; type: in vitro ADME; conditions: 10 μM 1E7-03, 37°C, 1 hr; 1E7-03 remaining and DP1, DP3 formed
Experimental: The metabolic stability of 1E7-03 was also investigated using a pool of human and mouse liver microsomes (HMS9PL, MSS9PL, Thermo Scientific) following manufacturer's instructions. In brief, incubations were conducted at 37 ± 1°C in mixtures containing 5 μl of human or mouse liver microsomes (20 mg/ml), 183 μl of potassium phosphate buffer (pH 7.4, 100 mM) and 2 μl of 1E7-03 (10 mM sock solution of 1E7-03 in DMSO was diluted into 1 mM by PBS). The mixture was pre-incubated for 5 min, then initiated the reactions with the addition of 10 μl 20 mM NADPH (Sigma Aldrich). The reactions were terminated after 1 hr incubation by adding 800 μl cold acetone. The mixture was kept at 4°C for 30 min, and the precipitated protein was removed by centrifugation (13, 000 g for 10 min at 4°C). A 250 μl aliquot of supernatant was transferred to a clean test tube and evaporated to dryness using a SpeedVac concentrator. The residue was reconstituted in 50 μl of acetonitrile with 0.1% FA for LC/FT-MS analysis.

[4] = system: HIV-1-LUC-G; test: Single round HIV-1 replication, luciferase readout in CEM T cells; type: cell-based; conditions: Human immunodeficiency virus 1, T-cell
Experimental: CEM T cells were infected with VSVG-pseudotyped pNL4-3.Luc.R-E-virus (HIV-1-LUC-G) prepared as previously described and cultured in 96-well white plates ( 1.25 × 10^6 cells/ml, 100 μl/well) at 37°C and 5% CO2. The cells were treated with serial dilutions of the compounds or vehicle (DMSO) and incubated overnight. At 24 hrs post infection, 100 μl of reconstituted luciferase buffer (Luclite Kit, Perkin Elmer) was added to each well, incubated for 10 min and luminescence was measured using Glo-Max Microplate Multimode reader (Promega).

[5] = mouse plasma after i.p. 30 mg/kg 1E7-03, parent and its metabolites DP1, DP3, mean, n=3
[6] = mouse plasma after i.p. 30 mg/kg 1E7-03, parent and metabolites DP1, DP3
[7] = mouse, plasma, 30 mg/kg, mouse plasma after i.p. 30 mg/kg 1E7-03, parent and metabolites DP1, DP3
[8] = read-out: One round HIV-1 infection IC50, CEM T cells, HIV-1-LUC-G, Figure 4A
[9] = read-out: One round HIV-1 infection IC50, CEM T cells, HIV-1-LUC-G, Figure 7D
[10] = mouse plasma after i.p. 100 mg/kg DP1-07, parent and products DP1-07P1, DP1-07P2

Row | Compound | Cmax [1, 5] [µM] | AUC(0-t) [1, 6] [µM·h] | MRT last [1, 6] [h] | half-life [1, 6] [h] | Tmax [1, 7] [h] | stability in mice and mouse plasma ([2]; in words) | % of 1E7-03 degraded ([2]; 37°C, 2 hrs) [%] | % of 1E7-03 degraded ([2]; 37°C, 4 hrs) | % of Total (Liver microsomes, Mouse) [3] | IC50 [4, 8] [µM] | IC50 [4, 9] [µM] | AUC(0-t) [1, 10] [µM·h] | MRT last [1, 10] [h] | half-life [1, 10] [h] | Cmax ([1]; mouse plasma after i.p. 100 mg/kg DP1-07, parent and products DP1-07P1, DP1-07P2 (quantified with DP1 and DP3 calibration curves)) [µM] | Tmax ([1]; mouse, plasma, 100 mg/kg, mouse plasma after i.p. 100 mg/kg DP1-07, parent and products DP1-07P1, DP1-07P2) [h] | concentration at 24 h ([1]; mouse, plasma, i.p. 100 mg/kg DP1-07, 24 hrs, read-out: concentration present in murine blood 24 hrs post-injection) [µM] | time at which DP1 levels reached their maximum ([2]; 10 μM 1E7-03 in mouse plasma, 37°C) [h] | level of degradation product in mouse plasma ([2]; 10 μM 1E7-03 in mouse plasma, 37°C, up to 24 hrs)
1 | CCNC(=O)NC(=O)C(C)OC(=O)c1c2c(nc3ccccc13)/C(=C/c1ccc(OC)c(OC)c1)CC2 (stereo not shown) [1E7-03] | 3.43 | 12.2 | 2.4 | 3.39 | 0.5 | not stable | 40 | over 85% | 91% and 90.61% | 1.7 | 2 |  |  |  |  |  |  |  | 
2 | COc1ccc(/C=C2\CCCc3c2nc2ccccc2c3C(=O)OC(C)C(=O)OC(C)(C)C)cc1OC (stereo not shown) [DP1-07] |  |  |  |  |  |  |  |  |  |  | > 66 | 706 | 10.7 | 14.3 | 42.7 | ~6 | 18 |  | 
3 | COc1ccc(/C=C2\CCc3c2nc2ccccc2c3C(=O)OC(C)C(=O)O)cc1OC (stereo not shown) [DP1] | 9.09 | 124 | 4.98 | 3.2 | 3 |  |  |  | 8.36% | 17 |  |  |  |  |  |  |  | 2 | 
4 | COc1ccc(/C=C2\CCc3c2nc2ccccc2c3C(=O)O)cc1OC [DP3] | 3.61 | 30.7 | 4.39 | 2.44 | 1 |  |  |  | 1.03% | > 180 |  |  |  |  |  |  |  |  | low levels
